Results from PubChem BioAssay (NCI).
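These data come from cells grown in 96-well plates and exposed to compound for 48 hours at five concentrations. GI50 is the concentration that inhibits growth by half. At the TGI there is no net growth.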

What was measured:
Assay in all cases: NCI tumour cell line growth inhibition, 48 h
[1] = test system: SF-268 CNS
[2] = test system: SK-MEL-2 melanoma
[3] = test system: CCRF-CEM leukemia
[4] = test system: 786-0 renal
[5] = test system: OVCAR-5 ovarian
[6] = test system: SF-295 CNS
[7] = test system: OVCAR-4 ovarian
[8] = test system: OVCAR-3 ovarian
[9] = test system: MCF7 breast
[10] = test system: MOLT-4 leukemia

COc1ccc(C(O)C(c2ccc(OCc3ccccc3)cc2)c2ccc(OCc3ccccc3)cc2)cc1 (centres undefined)
TGI [1]: > 100 µM
TGI [2]: > 100 µM
TGI [3]: > 100 µM
TGI [4]: > 100 µM
TGI [5]: > 100 µM
TGI [6]: > 100 µM
TGI [7]: > 100 µM
TGI [8]: > 100 µM

CC(NC(=O)c1ccc(Cl)c(Cl)c1)c1ccc(-c2ccccc2)cc1 (centres undefined)
TGI [1]: > 100 µM
TGI [2]: > 100 µM
TGI [4]: 47.5 µM
TGI [9]: > 100 µM
TGI [5]: > 100 µM
TGI [6]: > 100 µM
TGI [7]: 37.7 µM
TGI [8]: 66.2 µM

COc1ccc(-c2nn3ncccc3c2-c2ccnc(Nc3ccc(F)c(F)c3)n2)cc1
GI50 [1]: 14.2 µM
TGI [1]: > 25 µM
GI50 [3]: 11.2 µM
TGI [3]: > 25 µM
GI50 [4]: 11.1 µM
TGI [4]: > 25 µM
GI50 [9]: 10.6 µM
TGI [9]: > 25 µM
GI50 [5]: 11.6 µM
TGI [5]: > 25 µM
GI50 [6]: 4.26 µM
TGI [6]: > 25 µM
GI50 [7]: 12.4 µM
TGI [7]: > 25 µM
GI50 [10]: 8.45 µM
TGI [10]: > 25 µM
GI50 [8]: 11.8 µM
TGI [8]: > 25 µM

Clc1ccc2c(NC3CCC(NC4CCCCC4)CC3)ccnc2c1 (centres undefined)
GI50 [1]: 10.5 µM
TGI [1]: 25.6 µM
GI50 [2]: 1.97 µM
TGI [2]: 3.95 µM
GI50 [4]: 11.9 µM
TGI [4]: 24.5 µM
GI50 [9]: 2.49 µM
TGI [9]: 11 µM
GI50 [5]: 18.5 µM
TGI [5]: 54.4 µM
GI50 [6]: 1.92 µM
TGI [6]: 5.19 µM
GI50 [7]: 6.48 µM
TGI [7]: 41 µM
GI50 [8]: 5.34 µM
TGI [8]: 23.2 µM

COc1cc(-c2csc(NC(=O)Nc3ccc(Cl)cc3)n2)cc(OC)c1OC
GI50 [1]: 3.28 µM
TGI [1]: 20.8 µM
GI50 [2]: 2.18 µM
TGI [2]: 5.04 µM
GI50 [3]: 3.44 µM
TGI [3]: > 49.9 µM
GI50 [4]: 2.35 µM
TGI [4]: 7.83 µM
GI50 [9]: 2.53 µM
TGI [9]: 10.7 µM
GI50 [5]: 3.56 µM
TGI [5]: 21 µM
GI50 [6]: 2.51 µM
TGI [6]: 8.45 µM
GI50 [7]: 2.89 µM
TGI [7]: > 49.6 µM
GI50 [8]: 2.54 µM
TGI [8]: 7.23 µM

CC(C)(Sc1cc(C(C)(C)C)c(O)c(C(C)(C)C)c1)Sc1cc(C(C)(C)C)c(O)c(C(C)(C)C)c1
TGI [1]: > 100 µM
TGI [2]: > 100 µM
TGI [3]: > 100 µM
TGI [4]: > 100 µM
TGI [9]: > 100 µM
TGI [5]: > 100 µM
TGI [6]: > 100 µM
TGI [7]: > 100 µM

CN1CCN(c2cc(F)c(NC3=C(Cl)C(=O)c4ncccc4C3=O)c(F)c2)CC1
GI50 [1]: 1.7 µM
TGI [1]: 3.44 µM
GI50 [2]: 1.77 µM
TGI [2]: 3.6 µM
GI50 [4]: 1.84 µM
TGI [4]: 3.8 µM
GI50 [9]: 1.07 µM
TGI [9]: 2.87 µM
GI50 [5]: 1.82 µM
TGI [5]: 3.6 µM
GI50 [6]: 1.68 µM
TGI [6]: 3.23 µM
GI50 [7]: 1.35 µM
TGI [7]: 2.65 µM
GI50 [10]: 2.4 µM
TGI [10]: 8.83 µM
GI50 [8]: 0.539 µM
TGI [8]: 2 µM

CCOP(=O)(OCC)C(C(=O)OC)C(=O)C(=O)Nc1cccc([N+](=O)[O-])c1 (centres undefined)
TGI [1]: > 100 µM
TGI [2]: > 100 µM
TGI [3]: > 100 µM
TGI [4]: > 100 µM
TGI [5]: > 100 µM
TGI [6]: > 100 µM
TGI [7]: > 100 µM
TGI [10]: > 100 µM
TGI [8]: > 100 µM

O=C(O)C1CCCN1 (centres undefined)
TGI [1]: > 100 µM
TGI [2]: > 100 µM
TGI [4]: > 100 µM
TGI [9]: > 100 µM
TGI [5]: > 100 µM
TGI [6]: > 100 µM
TGI [7]: > 100 µM
TGI [10]: > 100 µM
TGI [8]: > 100 µM

Clc1ccc(NCNC2Nc3ccccc3N2)cc1Cl
TGI [1]: > 100 µM
TGI [2]: 79.6 µM
TGI [3]: > 100 µM
TGI [4]: > 100 µM
TGI [9]: 29.1 µM
TGI [5]: > 100 µM
TGI [6]: > 100 µM
TGI [10]: > 100 µM
TGI [8]: > 100 µM

O=NN(CC1(O)OCC(O)C(O)C1O)C(Cc1c[nH]c2ccccc12)C(=O)O (centres undefined)
TGI [2]: > 100 µM
TGI [3]: > 100 µM
TGI [4]: > 100 µM
TGI [5]: > 100 µM
TGI [10]: > 100 µM
TGI [8]: > 100 µM

CN(C)C(=C1C(Br)=C(Br)C(Br)=C1Br)N(C)C
TGI [1]: > 100 µM
TGI [2]: > 100 µM
TGI [3]: 95.3 µM
TGI [4]: > 100 µM
TGI [5]: > 100 µM
TGI [6]: > 100 µM
TGI [7]: > 100 µM
TGI [10]: > 100 µM
TGI [8]: > 100 µM

O=C1C2C3SC(c4cc5ccccc5cc43)C2C(=O)N1c1ccccc1 (centres undefined)
TGI [1]: > 100 µM
TGI [2]: > 100 µM
TGI [3]: > 100 µM
TGI [4]: > 100 µM
TGI [5]: > 100 µM
TGI [6]: > 100 µM
TGI [7]: > 100 µM
TGI [10]: > 100 µM
TGI [8]: > 100 µM

O=C(O)c1ccccc1NS(=O)(=O)c1ccc(Cl)cc1
TGI [1]: > 100 µM
TGI [2]: > 100 µM
TGI [3]: > 100 µM
TGI [4]: > 100 µM
TGI [5]: > 100 µM
TGI [7]: > 100 µM
TGI [10]: > 100 µM

CCN(CC)CCN1C(=O)C2C3C(C)=CC(OC(C)=O)(CC3C)C2C1=O (centres undefined)
GI50 [1]: > 100 µM
TGI [1]: > 100 µM
GI50 [2]: > 100 µM
TGI [2]: > 100 µM
GI50 [3]: > 100 µM
TGI [3]: > 100 µM
GI50 [4]: > 100 µM
TGI [4]: > 100 µM
GI50 [5]: > 100 µM
TGI [5]: > 100 µM
GI50 [6]: > 100 µM
TGI [6]: > 100 µM
GI50 [7]: > 100 µM
TGI [7]: > 100 µM
GI50 [10]: > 100 µM
TGI [10]: > 100 µM

CN(N=O)C(=O)NC(CCCCNC(=O)OCc1ccccc1)C(=O)OCc1ccccc1 (centres undefined)
TGI [2]: 85.5 µM
TGI [3]: 57.1 µM
TGI [4]: 33.6 µM
TGI [5]: > 100 µM
TGI [6]: > 100 µM
TGI [7]: > 100 µM
TGI [10]: 64.9 µM
TGI [8]: 98.1 µM

CN(c1ccccc1)c1nc(=[N+](C)C)ss1
TGI [1]: > 100 µM
TGI [2]: > 100 µM
TGI [3]: > 100 µM
TGI [4]: > 100 µM
TGI [5]: > 100 µM
TGI [6]: > 100 µM
TGI [7]: > 100 µM

CCC(=O)N1C(=S)SC[C@H]1C(=O)OC
TGI [1]: > 100 µM
TGI [3]: > 100 µM
TGI [4]: > 100 µM
TGI [5]: > 100 µM
TGI [6]: > 100 µM
TGI [7]: > 100 µM
TGI [10]: > 100 µM
TGI [8]: > 100 µM

O=C(c1ccccc1)[C@H]1Nc2ccc(Cl)cc2[C@H]2c3ccccc3O[C@H]21
TGI [1]: 33.9 µM
TGI [2]: 27.3 µM
TGI [4]: 30.6 µM
TGI [5]: 29.5 µM
TGI [6]: 28.9 µM
TGI [7]: 32.3 µM
TGI [10]: 37.7 µM
TGI [8]: 25.7 µM

O=C1CN=C(c2ccccc2)c2ccncc2N1
TGI [1]: > 100 µM
TGI [2]: > 100 µM
TGI [3]: > 100 µM
TGI [4]: > 100 µM
TGI [5]: > 100 µM
TGI [6]: > 100 µM
TGI [7]: > 100 µM
TGI [10]: > 100 µM
TGI [8]: > 100 µM

O=c1c2ccccc2c(=O)n2n1-c1cccc(c1)CSSCc1cccc-2c1
GI50 [1]: > 100 µM
TGI [1]: > 100 µM
GI50 [2]: > 100 µM
TGI [2]: > 100 µM
GI50 [3]: > 100 µM
TGI [3]: > 100 µM
TGI [4]: > 100 µM
GI50 [5]: > 100 µM
TGI [5]: > 100 µM
TGI [6]: > 100 µM
GI50 [7]: > 100 µM
TGI [7]: > 100 µM
GI50 [10]: > 100 µM
TGI [10]: > 100 µM
GI50 [8]: > 100 µM
TGI [8]: > 100 µM
